Molecules are shown by their SMILES.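 These data come from cells grown in 96-well plates and exposed to compound for 48 hours at five concentrations. Here, GI50 denotes the concentration required for 50% inhibition of growth.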 Calls of active or inactive are those of the source. No stated cut-off is given here; in the data, active = GI50 up to about 1.1 µM and inactive = higher. Bounds are passed on as bounds.

Common to all, as to test: inhibition of tumour cell growth, NCI panel, 48 h
The subject of experiment [1] is HOP-92.
For experiment [2], the system named is EKVX.
Experiment [3] has as its system NCI/ADR-RES.
Experiment [4] concerns U-251.
For experiment [5], the system named is 786-0.
For experiment [6], the system named is HT-29.
Experiment [7] has as its system TK-10.
In experiment [8] the test system is CAKI-1.
The subject of experiment [9] is HCT-116.
The subject of experiment [10] is OVCAR-3.
In experiment [11] the test system is MOLT-4.
The test system of experiment [12] is HL-60.
Experiment [13] concerns CCRF-CEM.
The test system of experiment [14] is OVCAR-8.
Experiment [15] relates to HCC 2998.
The test system of experiment [16] is UO-31.
Experiment [17] has as its system NCI-H522.
The test system of experiment [18] is SW-620.
The subject of experiment [19] is HOP-62.
The subject of experiment [20] is KM12.

As for `O=C(Nc1ccc(Cl)cc1Cl)C1C(=O)OC2(CCCCC2)OC1=O`, the GI50 in experiment [1] was 6.82 µM (inactive); in experiment [2] it was 11.9 µM (inactive); in [3], 4.93 µM (inactive); in experiment [4], 5.32 µM (inactive); in experiment [5] it was 12.2 µM (inactive); in experiment [6], 11.5 µM (inactive). In addition, the GI50 in experiment [7] was 14.1 µM (inactive); in [8], 4.78 µM (inactive); in experiment [9], 6.08 µM (inactive); in [10], 3.18 µM (inactive); in experiment [11], 5.15 µM (inactive); in [12], 5.16 µM (inactive). Moreover, the GI50 is 4.24 µM (inactive) in experiment [13]; 5.7 µM (inactive) in [14]; 13 µM (inactive) in [15]; 2.94 µM (inactive) in experiment [16]; 12 µM (inactive) in experiment [17]; 5.52 µM (inactive) in experiment [18]. Also, the GI50 was 4.38 µM (inactive) in [19] and 6.43 µM (inactive) in experiment [20].
As for `O=C1CC2(CCC(O)(c3ccc(Cl)cc3)C(C(=O)c3ccc(Cl)cc3)C2)C(=O)c2ccccc2N1` (stereo not given), the GI50 in experiment [1] is 0.794 µM (active); in [2], > 23.6 µM (inactive); in [3], 11.6 µM (inactive); in [4], 2.6 µM (inactive); in experiment [5], 1.34 µM (inactive); in experiment [6], 3.89 µM (inactive). For the same molecule, the GI50 was 9.86 µM (inactive) in [7]; 9.62 µM (inactive) in experiment [8]; 6.17 µM (inactive) in [9]; > 100 µM (inactive) in [10]; 2.12 µM (inactive) in experiment [11]; 11 µM (inactive) in [12]. Besides, the GI50 is 4.61 µM (inactive) in experiment [13]; 14.7 µM (inactive) in experiment [14]; 35.5 µM (inactive) in [15]; 17.6 µM (inactive) in experiment [16]; 11.7 µM (inactive) in experiment [17]; 27.4 µM (inactive) in [18]. Also, the results for the GI50 in [19] and in experiment [20] were 3.35 µM (inactive) and > 100 µM (inactive), respectively.
Turning to `CC(=O)Nc1ccc(-c2nc3ccccc3s2)cc1Br`, the GI50 is 46 µM (inactive) in experiment [1]; 10.5 µM (inactive) in [2]; 73.3 µM (inactive) in experiment [3]; 46 µM (inactive) in [4]; 35.6 µM (inactive) in [5]; > 63.7 µM (inactive) in experiment [6]. Moreover, the GI50 in experiment [7] is 0.142 µM (active); in experiment [8], 25.5 µM (inactive); in experiment [9], 20.5 µM (inactive); in experiment [10], 0.305 µM (active); in experiment [11] it was > 100 µM (inactive); in experiment [12] it was > 100 µM (inactive). In addition, the GI50 was > 100 µM (inactive) in experiment [13]; 31 µM (inactive) in experiment [14]; 0.29 µM (active) in experiment [15]; 25.5 µM (inactive) in experiment [16]; > 72.3 µM (inactive) in experiment [17]; > 100 µM (inactive) in experiment [18]. The GI50 in experiment [19] was 7.53 µM (inactive); in experiment [20] it was > 100 µM (inactive).
As to `O=C1Nc2ccccc2/C1=C1/Nc2ccccc2/C1=N\OCCOC1OCC(O)C(O)C1O` (stereo not given), the GI50 in experiment [1], in experiment [2], in [3], in [4], in [5] and in experiment [6] was > 100 µM (inactive) in each case. In addition, the GI50 in [7] was 81.3 µM (inactive); in [8] it was 6.78 µM (inactive); in experiment [9], 32.8 µM (inactive); in experiment [10], > 100 µM (inactive); in experiment [11] it was 85.7 µM (inactive); in [12] it was > 100 µM (inactive). The GI50 was > 100 µM (inactive) in experiment [13]; > 100 µM (inactive) in [14]; 25.5 µM (inactive) in experiment [15]; > 100 µM (inactive) in experiment [16]; > 100 µM (inactive) in experiment [17]; > 100 µM (inactive) in experiment [18]. For the same molecule, the GI50 was 6.38 µM (inactive) in experiment [19] and 0.453 µM (active) in experiment [20].
As to `CN(C)CCCN1C(=S)N(CCCN(C)C)c2c3cc(O)ccc3nc3c([N+](=O)[O-])ccc1c23`, the GI50 was 2.38 µM (inactive) in [1]; 4.08 µM (inactive) in experiment [2]; 6.07 µM (inactive) in [3]; 2.46 µM (inactive) in [4]; 1.07 µM (active) in [5]; 0.757 µM (active) in experiment [6]. For the same molecule, the GI50 was 11.5 µM (inactive) in experiment [7]; 1.66 µM (inactive) in experiment [8]; 1 µM (active) in experiment [9]; 1.68 µM (inactive) in [10]; 0.0953 µM (active) in [11]; 3.09 µM (inactive) in [12]. Besides, the GI50 in experiment [13] was 1.18 µM (inactive); in experiment [14] it was 1.87 µM (inactive); in [15] it was 2.44 µM (inactive); in experiment [16] it was 2.87 µM (inactive); in [17], 1.32 µM (inactive); in experiment [18], 1.96 µM (inactive). The GI50 was 2.61 µM (inactive) in [19] and 2.7 µM (inactive) in experiment [20].
For the molecule `CCCCCCCCOC(=O)c1cc([N+](=O)[O-])c(Sc2[nH]cnc3ncnc2-3)c([N+](=O)[O-])c1`, the GI50 in experiment [1] is 0.748 µM (active); in experiment [2], 8.71 µM (inactive); in experiment [3], 3 µM (inactive); in experiment [4], 3.44 µM (inactive); in experiment [5] it was 1.47 µM (inactive); in [6], 1.77 µM (inactive). The GI50 in experiment [7] is 1.85 µM (inactive); in experiment [8] it was 3.37 µM (inactive); in experiment [9], 1.84 µM (inactive); in experiment [10] it was 1.01 µM (active); in [11], 0.857 µM (active); in [12] it was 1.52 µM (inactive). For the same molecule, the GI50 in experiment [13] was 0.288 µM (active); in experiment [14], 2.18 µM (inactive); in experiment [15], 3.66 µM (inactive); in experiment [16] it was 3.85 µM (inactive); in [17], 1.05 µM (active); in [18] it was 1.76 µM (inactive). In addition, the GI50 in experiment [19] is 3.03 µM (inactive); in [20], 3.45 µM (inactive).
Turning to `COC(=O)c1ccccc1C1CN=NC12Cc1cc3c(cc1C2=O)CCC3` (stereo not given), the GI50 in experiment [1] is 30.7 µM (inactive); in experiment [2], 74.5 µM (inactive); in experiment [3], 37.8 µM (inactive); in experiment [4], 70.3 µM (inactive); in experiment [5] it was > 100 µM (inactive); in [6], 87.5 µM (inactive). Also, the GI50 in experiment [7] was > 100 µM (inactive); in [8], > 100 µM (inactive); in experiment [9], 36.3 µM (inactive); in experiment [10] it was 82.4 µM (inactive); in experiment [11], 35.5 µM (inactive); in [12] it was 21.4 µM (inactive). For the same molecule, the GI50 in [13] was 29.2 µM (inactive); in experiment [14], 48.2 µM (inactive); in experiment [15], 47.1 µM (inactive); in experiment [16], 50.5 µM (inactive); in experiment [17] it was 32.9 µM (inactive); in experiment [18], 67.6 µM (inactive). For the same molecule, the values for the GI50 in [19] and in [20] were > 100 µM (inactive) and 32.1 µM (inactive), respectively.
On to `O=C(N/N=C/C=C/c1ccc([N+](=O)[O-])o1)c1ccc(C(=O)N/N=C/C=C/c2ccc([N+](=O)[O-])o2)cc1`, for which the GI50 in experiment [1] was > 62.8 µM (inactive); in experiment [2], > 100 µM (inactive); in [3], 36.7 µM (inactive); in [4], 17.3 µM (inactive); in [5], 20.1 µM (inactive); in experiment [6] it was 72.9 µM (inactive). The GI50 is 31.8 µM (inactive) in experiment [7]; 38.6 µM (inactive) in experiment [8]; 12.7 µM (inactive) in experiment [9]; 31.7 µM (inactive) in experiment [10]; 5.42 µM (inactive) in experiment [11]; 19.8 µM (inactive) in experiment [12]. The GI50 in [13] was 1.93 µM (inactive); in experiment [14] it was 13.2 µM (inactive); in experiment [15] it was 12.9 µM (inactive); in experiment [16] it was > 67.6 µM (inactive); in [17] it was 24.3 µM (inactive); in experiment [18], 19.1 µM (inactive). For the same molecule, the GI50 in experiment [19] was 46.7 µM (inactive); in [20], > 100 µM (inactive).
For `O=C1NCN(c2ccccc2)C12CCN(CCCN1CCN(CCOC(c3ccccc3)c3ccccc3)CC1)CC2`, the GI50 in [1] was 1.93 µM (inactive); in experiment [2], 3.68 µM (inactive); in [3], 4.54 µM (inactive); in [4], 4.07 µM (inactive); in experiment [5] it was 0.753 µM (active); in [6], 1.11 µM (active). In addition, the GI50 in experiment [7] is 3.83 µM (inactive); in [8], 3.78 µM (inactive); in experiment [9], 2.33 µM (inactive); in [10] it was 3.54 µM (inactive); in experiment [11] it was 2.13 µM (inactive); in [12], 1.18 µM (inactive). Moreover, the GI50 in experiment [13] was 0.859 µM (active); in experiment [14] it was 3.33 µM (inactive); in experiment [15], 0.501 µM (active); in [16] it was 1.5 µM (inactive); in experiment [17], 1.73 µM (inactive); in [18], 2.62 µM (inactive). The GI50 is 3.25 µM (inactive) in experiment [19] and 2.87 µM (inactive) in experiment [20].
As for `O=C(Nc1ccccc1)c1cc2cc(CCl)ccc2oc1=O`, the GI50 was > 100 µM (inactive) in experiment [1]; > 100 µM (inactive) in [2]; > 100 µM (inactive) in experiment [3]; 47 µM (inactive) in experiment [4]; 48.8 µM (inactive) in experiment [5]; 8.57 µM (inactive) in [6]. The GI50 in experiment [7] is 39.8 µM (inactive); in [8], > 100 µM (inactive); in experiment [9] it was > 100 µM (inactive); in [10], > 100 µM (inactive); in experiment [11], > 100 µM (inactive); in experiment [12] it was 41.6 µM (inactive). Also, the GI50 in experiment [13] was > 100 µM (inactive); in [14], > 100 µM (inactive); in experiment [15], > 100 µM (inactive); in experiment [16], > 100 µM (inactive); in experiment [17], 70.3 µM (inactive); in [18], > 100 µM (inactive). For the same molecule, the figures for the GI50 in experiment [19] and in experiment [20] were 81.7 µM (inactive) and > 100 µM (inactive), respectively.
